Experimental data taken from patent US20260008776A1 (HANGZHOU POLYMED BIOPHARMACEUTICALS, INC., priority 2023, published 2026).
Where two headings read alike, the source gives them in different places.

Columns and labels:
[1] = type: physicochemical
Protocol: The glass dishes or glass vials were then placed in different environments of the constant temperature and humidity chamber, with conditions including: illumination: 4500±500 Lux (open); high temperature: 60° C.

[2] = Solubility test of salts in pH buffers, water and physiological solutions; type: physicochemical
Protocol: The solubility of dominant salts in different pH buffers, water, and physiological solutions was determined. The specific steps for solubility determination are as follows: […] The vials were sealed, transferred to a magnetic stirrer, and maintained at 25° C. with a stirring rate of 500 rpm for 24 hours. The dissolution status in sample vials was recorded during the test. After 24 hours, approximately 1 mL of the suspension was filtered, and the filtrate was collected for solubility test via HPLC analysis. The pH value of the filtrate sample was measured using a pH meter.

DVS test of salt forms = type: physicochemical; conditions: for Hygroscopicity (DVS), in words: 0% to 90% humidity, two cycles
Excerpt: 1. The instrument sample pan was first tared and balanced.
3. The program was run: starting from 0% humidity as the initial point, slowly increasing to 90%, then returning to 0% to complete the cycle 1; rising again to 90% and decreasing back to 0% to conclude, completing the cycle 2 (as shown in FIGS. 35-36).

[3] = High Relative Humidity (RH = 90 ± 5%, Open, 25° C.), 5 Days
[4] = High Relative Humidity (RH = 90 ± 5%, Open, 25° C.), 11 Days
[5] = High Temperature (60° C., Sealed), 5 Days
[6] = High Temperature (60° C., Sealed), 11 Days
[7] = Strong Illumination (Open), 5 Days
[8] = Strong Illumination (Open), 11 Days

CC(C)(O)CCn1cc2cc(NC(=O)c3coc(-c4ccnc(C(F)(F)F)c4)n3)c(C(C)(C)O)cc2n1.Cl [crystal form A of hydrochloride salt]
Solid-state stability evaluation [1]: good physical and chemical stability | Color Change [1, 3]: No Change | Purity [1, 3]: 99.65% | Salt Type [1, 3]: No Change | Color Change [1, 4]: No Change | Purity [1, 4]: 99.79% | Salt Type [1, 4]: No Change | Color Change [1, 5]: No Change | Purity [1, 5]: 99.64% | Salt Type [1, 5]: No Change | Color Change [1, 6]: No Change | Purity [1, 6]: 99.48% | Salt Type [1, 6]: No Change | Purity ([1]; Initial State): 98.53% | Color Change ([1]; Initial State (colour)): White | Color Change [1, 7]: No Change | Purity [1, 7]: 99.68% | Salt Type [1, 7]: No Change | Color Change [1, 8]: No Change | Purity [1, 8]: 99.56% | Salt Type [1, 8]: No Change | Solubility at 25° C. ([2]; Buffer pH = 1.0, 24 hours): 172.73 µg/mL | Solubility at 25° C. ([2]; Buffer pH = 6.8, 24 hours): <LOD | Solubility at 25° C. ([2]; FaSSIF (pH = 6.5), 24 hours): 2.09 µg/mL | Solubility at 25° C. ([2]; FeSSIF (pH = 5.0), 24 hours): 7.86 µg/mL | Solubility at 25° C. ([2]; SGF (pH = 1.2), 24 hours): 2.20 µg/mL | Solubility at 25° C. ([2]; Water, 24 hours): <LOD | Change of the sample before and after the DVS test (DVS test of salt forms): no changes are observed | Hygroscopicity (DVS), in words (DVS test of salt forms): low hygroscopicity | Water Sorption at 90% Relative Humidity (DVS test of salt forms): 0.42% Water Sorption at 90% Relative Humidity | Desorption (DVS test of salt forms; cycle 1, 0% humidity): −0.06% | Sorption (DVS test of salt forms; cycle 1, 0% humidity): 0.00% | Desorption (DVS test of salt forms; cycle 1, 10% humidity): −0.02% | Sorption (DVS test of salt forms; cycle 1, 10% humidity): −0.02% | Desorption (DVS test of salt forms; cycle 1, 20% humidity): 0.01% | Sorption (DVS test of salt forms; cycle 1, 20% humidity): 0.00% | Desorption (DVS test of salt forms; cycle 1, 30% humidity): 0.04% | Sorption (DVS test of salt forms; cycle 1, 30% humidity): 0.03% | Desorption (DVS test of salt forms; cycle 1, 40% humidity): 0.07% | Sorption (DVS test of salt forms; cycle 1, 40% humidity): 0.06% | Desorption (DVS test of salt forms; cycle 1, 50% humidity): 0.11% | Sorption (DVS test of salt forms; cycle 1, 50% humidity): 0.09% | Desorption (DVS test of salt forms; cycle 1, 60% humidity): 0.16% | Sorption (DVS test of salt forms; cycle 1, 60% humidity): 0.13% | Desorption (DVS test of salt forms; cycle 1, 70% humidity): 0.21% | Sorption (DVS test of salt forms; cycle 1, 70% humidity): 0.17% | Desorption (DVS test of salt forms; cycle 1, 80% humidity): 0.30% | Sorption (DVS test of salt forms; cycle 1, 80% humidity): 0.28% | Desorption (DVS test of salt forms; cycle 1, 90% humidity): 0.42% | Sorption (DVS test of salt forms; cycle 1, 90% humidity): 0.42% | Desorption (DVS test of salt forms; cycle 2, 0% humidity): −0.05% | Sorption (DVS test of salt forms; cycle 2, 0% humidity): −0.06% | Desorption (DVS test of salt forms; cycle 2, 10% humidity): −0.02% | Sorption (DVS test of salt forms; cycle 2, 10% humidity): −0.03% | Desorption (DVS test of salt forms; cycle 2, 20% humidity): 0.01% | Sorption (DVS test of salt forms; cycle 2, 20% humidity): 0.01% | Desorption (DVS test of salt forms; cycle 2, 30% humidity): 0.05% | Sorption (DVS test of salt forms; cycle 2, 30% humidity): 0.03% | Desorption (DVS test of salt forms; cycle 2, 40% humidity): 0.08% | Sorption (DVS test of salt forms; cycle 2, 40% humidity): 0.07% | Desorption (DVS test of salt forms; cycle 2, 50% humidity): 0.12% | Sorption (DVS test of salt forms; cycle 2, 50% humidity): 0.10% | Desorption (DVS test of salt forms; cycle 2, 60% humidity): 0.17% | Sorption (DVS test of salt forms; cycle 2, 60% humidity): 0.14% | Desorption (DVS test of salt forms; cycle 2, 70% humidity): 0.22% | Sorption (DVS test of salt forms; cycle 2, 70% humidity): 0.19% | Desorption (DVS test of salt forms; cycle 2, 80% humidity): 0.32% | Sorption (DVS test of salt forms; cycle 2, 80% humidity): 0.30% | Desorption (DVS test of salt forms; cycle 2, 90% humidity): 0.45% | Sorption (DVS test of salt forms; cycle 2, 90% humidity): 0.45%

CC(C)(O)CCn1cc2cc(NC(=O)c3coc(-c4ccnc(C(F)(F)F)c4)n3)c(C(C)(C)O)cc2n1.O=P(O)(O)O [crystal form A of phosphate salt]
Color Change [1, 3]: No Change | Purity [1, 3]: 99.66% | Salt Type [1, 3]: No Change | Color Change [1, 4]: No Change | Purity [1, 4]: 99.33% | Salt Type [1, 4]: No Change | Color Change [1, 5]: Turn Yellow | Purity [1, 5]: 99.49% | Salt Type [1, 5]: No Change | Color Change [1, 6]: Turn Yellow | Purity [1, 6]: 99.49% | Salt Type [1, 6]: No Change | Purity ([1]; Initial State): 99.18% | Color Change ([1]; Initial State (colour)): White | Color Change [1, 7]: No Change | Purity [1, 7]: 99.67% | Salt Type [1, 7]: No Change | Color Change [1, 8]: No Change | Purity [1, 8]: 99.01% | Salt Type [1, 8]: No Change | Solubility at 25° C. ([2]; Buffer pH = 6.8, 24 hours): <LOD | Solubility at 25° C. ([2]; FaSSIF (pH = 6.5), 24 hours): <LOD | Solubility at 25° C. ([2]; FeSSIF (pH = 5.0), 24 hours): <LOD | Solubility at 25° C. ([2]; SGF (pH = 1.2), 24 hours): <LOD | Solubility at 25° C. ([2]; Water, 24 hours): <LOD | Change of the sample before and after the DVS test (DVS test of salt forms): no changes are observed | Hygroscopicity (DVS), in words (DVS test of salt forms): low hygroscopicity | Water Sorption at 90% Relative Humidity (DVS test of salt forms): 0.80% Water Sorption at 90% Relative Humidity | Desorption (DVS test of salt forms; cycle 1, 0% humidity): −0.04% | Sorption (DVS test of salt forms; cycle 1, 0% humidity): 0.00% | Desorption (DVS test of salt forms; cycle 1, 10% humidity): −0.01% | Sorption (DVS test of salt forms; cycle 1, 10% humidity): 0.02% | Desorption (DVS test of salt forms; cycle 1, 20% humidity): 0.01% | Sorption (DVS test of salt forms; cycle 1, 20% humidity): 0.04% | Desorption (DVS test of salt forms; cycle 1, 30% humidity): 0.04% | Sorption (DVS test of salt forms; cycle 1, 30% humidity): 0.06% | Desorption (DVS test of salt forms; cycle 1, 40% humidity): 0.09% | Sorption (DVS test of salt forms; cycle 1, 40% humidity): 0.10% | Desorption (DVS test of salt forms; cycle 1, 50% humidity): 0.15% | Sorption (DVS test of salt forms; cycle 1, 50% humidity): 0.14% | Desorption (DVS test of salt forms; cycle 1, 60% humidity): 0.21% | Sorption (DVS test of salt forms; cycle 1, 60% humidity): 0.20% | Desorption (DVS test of salt forms; cycle 1, 70% humidity): 0.31% | Sorption (DVS test of salt forms; cycle 1, 70% humidity): 0.29% | Desorption (DVS test of salt forms; cycle 1, 80% humidity): 0.46% | Sorption (DVS test of salt forms; cycle 1, 80% humidity): 0.44% | Desorption (DVS test of salt forms; cycle 1, 90% humidity): 0.80% | Sorption (DVS test of salt forms; cycle 1, 90% humidity): 0.80% | Desorption (DVS test of salt forms; cycle 2, 0% humidity): −0.05% | Sorption (DVS test of salt forms; cycle 2, 0% humidity): −0.04% | Desorption (DVS test of salt forms; cycle 2, 10% humidity): −0.03% | Sorption (DVS test of salt forms; cycle 2, 10% humidity): −0.02% | Desorption (DVS test of salt forms; cycle 2, 20% humidity): 0.00% | Sorption (DVS test of salt forms; cycle 2, 20% humidity): 0.01% | Desorption (DVS test of salt forms; cycle 2, 30% humidity): 0.03% | Sorption (DVS test of salt forms; cycle 2, 30% humidity): 0.04% | Desorption (DVS test of salt forms; cycle 2, 40% humidity): 0.07% | Sorption (DVS test of salt forms; cycle 2, 40% humidity): 0.07% | Desorption (DVS test of salt forms; cycle 2, 50% humidity): 0.13% | Sorption (DVS test of salt forms; cycle 2, 50% humidity): 0.12% | Desorption (DVS test of salt forms; cycle 2, 60% humidity): 0.20% | Sorption (DVS test of salt forms; cycle 2, 60% humidity): 0.18% | Desorption (DVS test of salt forms; cycle 2, 70% humidity): 0.29% | Sorption (DVS test of salt forms; cycle 2, 70% humidity): 0.27% | Desorption (DVS test of salt forms; cycle 2, 80% humidity): 0.45% | Sorption (DVS test of salt forms; cycle 2, 80% humidity): 0.43% | Desorption (DVS test of salt forms; cycle 2, 90% humidity): 0.79% | Sorption (DVS test of salt forms; cycle 2, 90% humidity): 0.79%

CC(C)(O)CCn1cc2cc(NC(=O)c3coc(-c4ccnc(C(F)(F)F)c4)n3)c(C(C)(C)O)cc2n1.O=S(=O)(O)O [crystal form A of sulfate salt]
Color Change [1, 3]: Turn Yellow | Purity [1, 3]: 99.08% | Salt Type [1, 3]: No Change | Purity [1, 4]: 99.14% | Salt Type [1, 4]: No Change | Color Change [1, 5]: Turn Yellow | Purity [1, 5]: 99.74% | Salt Type [1, 5]: No Change | Color Change [1, 6]: Turn Yellow | Purity [1, 6]: 98.39% | Salt Type [1, 6]: No Change | Purity ([1]; Initial State): 99.12% | Color Change ([1]; Initial State (colour)): White | Color Change [1, 7]: No Change | Purity [1, 7]: 99.35% | Salt Type [1, 7]: No Change | Color Change [1, 8]: No Change | Purity [1, 8]: 99.26% | Salt Type [1, 8]: No Change | Solubility at 25° C. ([2]; Buffer pH = 1.0, 24 hours): 179.03 µg/mL | Solubility at 25° C. ([2]; Buffer pH = 6.8, 24 hours): <LOD | Solubility at 25° C. ([2]; FaSSIF (pH = 6.5), 24 hours): <LOD | Solubility at 25° C. ([2]; FeSSIF (pH = 5.0), 24 hours): 19.45 µg/mL | Solubility at 25° C. ([2]; SGF (pH = 1.2), 24 hours): 2.88 µg/mL | Solubility at 25° C. ([2]; Water, 24 hours): 1.34 µg/mL
